PMC4890880 (ACS infectious diseases, 2016)
Like-named read-outs stand apart in the source and are kept apart here.

System: HepG2-A16-CD81EGFP cells
Settings: for IC50: read-out: Tox_IC50, HepG2 cytotoxicity
[1] = 2nd round, maximal inhibition in dose series
[2] = sheet 2nd round, maximal inhibition in dose response

CCCNC(=O)N1[C@H](C#N)[C@H](c2ccccc2-c2ccc(OC)cc2)[C@@H]1CO [BRD-K19492647-001-01-0]
Tox_max_inhibition (%) [1]: 9%
IC50 (2nd round, unit inferred): > 10 µM

N#C[C@@H]1[C@H](c2ccccc2C2=CCCCC2)[C@H](CO)N1S(=O)(=O)c1ccccc1 [BRD-K90570429-001-01-9]
IC50 (sheet "2nd round"): > 10 µM
Tox_max_inhibition (%) (sheet "2nd round"): 8%

CC(C)CC#Cc1ccc([C@@H]2[C@H]3CN(C(=O)Nc4ccccc4)CCCCN3[C@H]2CO)cc1 [BRD-K28504277-001-01-8]
IC50 (sheet 2nd round): 5.23 µM
Tox_max_inhibition (%) [2]: 99%

O=C(Nc1ccccc1F)N1CCCCN2[C@H](CO)[C@@H](c3ccc(/C=C/c4ccccc4)cc3)[C@@H]2C1 [BRD-K50964970-001-01-5]
IC50 (sheet "2nd round"): > 10 µM
Tox_max_inhibition (%) (sheet "2nd round"): 8%

CCCNC(=O)N1[C@H](C#N)[C@H](c2ccc(-c3cccc(OC)c3)cc2)[C@@H]1CO [BRD-K80906650-001-01-7]
IC50 (sheet "2nd round"): > 10 µM
Tox_max_inhibition (%) (sheet "2nd round"): 45%

CCCC(=O)N1CCC2(CC1)CN(S(=O)(=O)c1ccc(C)cc1)[C@@H](CO)c1[nH]c3cc(OC)ccc3c12 [BRD-K73703617-001-01-9]
Tox_max_inhibition (%) [1]: 12%
IC50 (2nd round, unit inferred): > 10 µM

CCCNC(=O)Nc1ccc2c(c1)OC[C@@H](C)N(Cc1ccccc1)C[C@@H](C)[C@H](OC)CN(C)C2=O [BRD-K76980944-001-01-4]
Tox_max_inhibition (%) [1]: 6%
IC50 (2nd round, unit inferred): > 10 µM

Cc1ccccc1-c1ccc([C@@H]2[C@H](CO)N3CCCCN(S(=O)(=O)Cc4ccccc4)C[C@@H]23)cc1 [BRD-K92048968-001-01-1]
IC50 (sheet 2nd round): > 10 µM
Tox_max_inhibition (%) [2]: 7%

COc1ccc(-c2ccc([C@H]3[C@@H](C#N)N(C(=O)NC(C)C)[C@@H]3CO)cc2)cc1 [BRD-K42750356-001-01-3]
IC50 (sheet "2nd round"): > 10 µM
Tox_max_inhibition (%) (sheet "2nd round"): 10%

C[C@H](CO)N1C[C@H](C)[C@H](CN(C)C(=O)C2CCCCC2)Oc2ncc(C#Cc3cccc(F)c3)cc2C1=O [BRD-K77264696-001-01-2]
IC50 (sheet 2nd round): > 10 µM
Tox_max_inhibition (%) [2]: 30%

Cc1ccccc1-c1ccc2c(c1)O[C@H](CN(C)C(=O)Nc1ccc(C(F)(F)F)cc1)[C@@H](C)CN([C@@H](C)CO)S2(=O)=O [BRD-K68538844-001-01-1]
IC50 (sheet 2nd round): > 10 µM
Tox_max_inhibition (%) [2]: 35%

COc1ccccc1-c1ccc2c(c1)[C@@H]1[C@@H](CCN1C(=O)C1CCC1)[C@H](CO)N2 [BRD-K72492940-001-01-8]
IC50 (sheet 2nd round): > 10 µM
Tox_max_inhibition (%) [2]: 18%

O=C(C[C@H]1C[C@H]2c3cc(NC(=O)c4ccc5c(c4)OCO5)ccc3O[C@H]2[C@H](CO)O1)NCc1ccc(Oc2ccccc2)cc1 [BRD-K67774729-001-02-1]
IC50 (sheet 2nd round): > 10 µM
Tox_max_inhibition (%) [2]: 24%

C[C@H](CO)N1C[C@H](C)[C@H](CN(C)S(=O)(=O)c2ccc(C(F)(F)F)cc2)OCc2ccccc2-c2c(n(C)c3ccccc23)C1=O [BRD-K10380905-001-01-3]
IC50 (sheet 2nd round): > 10 µM
Tox_max_inhibition (%) [2]: 20%

CCCNC(=O)N1[C@H](C#N)[C@H](c2ccc(C#Cc3cccc(F)c3)cc2)[C@H]1CO [BRD-K31857539-001-01-9]
IC50 (sheet "2nd round"): > 10 µM
Tox_max_inhibition (%) (sheet "2nd round"): 6%

COc1ccc(NC(=O)N2CCCCN3[C@H](CO)[C@@H](c4ccc(-c5ccccc5F)cc4)[C@H]3C2)cc1 [BRD-K55569739-001-01-9]
IC50 (sheet 2nd round): > 10 µM
Tox_max_inhibition (%) [2]: 3.75%

O=C(C[C@@H]1C[C@H]2c3cc(NC(=O)c4ccc5c(c4)OCO5)ccc3O[C@H]2[C@H](CO)O1)NCc1ccc(Oc2ccccc2)cc1 [BRD-K60334624-001-01-9]
IC50 (sheet 2nd round): > 10 µM
Tox_max_inhibition (%) [2]: 4.54%

CO[C@@H]1CN(C)C(=O)c2ccc(NC(=O)Nc3ccccc3F)cc2OC[C@@H](C)N(Cc2ccccc2F)C[C@H]1C [BRD-K00229958-001-01-0]
IC50 (sheet 2nd round): > 10 µM
Tox_max_inhibition (%) [2]: 7%

CCCNC(=O)N1[C@H](C#N)[C@@H](c2ccccc2C2=CCCCC2)[C@@H]1CO [BRD-K70760948-001-01-2]
Tox_max_inhibition (%) [1]: 10%
IC50 (2nd round, unit inferred): > 10 µM

COc1ccc(-c2ccccc2[C@@H]2[C@@H](C#N)N(C(=O)NC3CCCCC3)[C@H]2CO)cc1 [BRD-K55353065-001-01-2]
Tox_max_inhibition (%) [1]: 11%
IC50 (2nd round, unit inferred): > 10 µM

COc1ccc(C#Cc2ccc3c(c2)O[C@@H](CN(C)C(=O)Nc2cccc(OC)c2)[C@@H](C)CN([C@@H](C)CO)S3(=O)=O)cc1 [BRD-K52609475-001-01-4]
Tox_max_inhibition (%) [1]: 6%
IC50 (2nd round, unit inferred): > 10 µM

C[C@@H]1CN([C@@H](C)CO)C(=O)c2cc(NC(=O)Nc3ccc4c(c3)OCO4)ccc2O[C@@H](C)CCCCO[C@H]1CN(C)S(=O)(=O)c1ccccc1 [BRD-K69357983-001-01-6]
Tox_max_inhibition (%) [1]: 9%
IC50 (2nd round, unit inferred): > 10 µM

C[C@H]1CN([C@@H](C)CO)C(=O)c2cc(/C=C/c3ccccc3)cnc2O[C@@H]1CN(C)C(=O)C1CCCCC1 [BRD-K27989629-001-01-7]
IC50 (sheet 2nd round): > 10 µM
Tox_max_inhibition (%) [2]: 5%

O=C(Nc1ccccc1F)N1CCCCN2[C@H](CO)[C@H](c3ccc(/C=C/c4ccccc4)cc3)[C@@H]2C1 [BRD-K85670919-001-01-1]
IC50 (sheet 2nd round): > 10 µM
Tox_max_inhibition (%) [2]: 13%

CCCN1C[C@H](C)[C@@H](OC)CN(C)C(=O)c2cc(NC(=O)Nc3cccc(F)c3)ccc2OC[C@H]1C [BRD-K02315086-001-01-0]
IC50 (sheet 2nd round): > 10 µM
Tox_max_inhibition (%) [2]: 10%

C[C@@H]1CCCCO[C@H](CN(C)S(=O)(=O)c2ccccc2)[C@@H](C)CN([C@H](C)CO)C(=O)c2cc(NC(=O)Nc3ccc4c(c3)OCO4)ccc2O1 [BRD-K06373569-001-01-1]
IC50 (sheet "2nd round"): > 10 µM
Tox_max_inhibition (%) (sheet "2nd round"): 14%

Cc1ccc(S(=O)(=O)N(C)C[C@@H]2Oc3cc(C#CC4CCCC4)ccc3S(=O)(=O)N([C@@H](C)CO)C[C@H]2C)cc1 [BRD-K40215908-001-01-2]
Tox_max_inhibition (%) [1]: 34%
IC50 (2nd round, unit inferred): > 10 µM

C[C@H](CO)N1C[C@H](C)[C@H](CN(C)S(=O)(=O)c2ccccc2)OCCCC[C@H](C)Oc2ccc(NC(=O)Nc3ccc4c(c3)OCO4)cc2C1=O [BRD-K43975729-001-01-5]
IC50 (sheet "2nd round"): > 10 µM
Tox_max_inhibition (%) (sheet "2nd round"): 7%

O=C(C[C@H]1C[C@@H]2c3cc(NS(=O)(=O)c4ccc(F)cc4)ccc3O[C@@H]2[C@@H](CO)O1)N1CCc2ccccc2C1 [BRD-K45723650-001-01-0]
IC50 (sheet "2nd round"): > 10 µM
Tox_max_inhibition (%) (sheet "2nd round"): -1%

COc1ccc(C#Cc2ccc3c(c2)O[C@@H](CN(C)C(=O)Nc2cccc(OC)c2)[C@@H](C)CN([C@H](C)CO)S3(=O)=O)cc1 [BRD-K04089243-001-01-9]
IC50 (sheet 2nd round): > 10 µM
Tox_max_inhibition (%) [2]: 2.28%

C[C@@H]1CN([C@@H](C)CO)C(=O)c2cc(C#Cc3ccccc3)cnc2O[C@H]1CN(C)C(=O)c1ccccc1 [BRD-K77826636-001-01-1]
Tox_max_inhibition (%) [1]: 20%
IC50 (2nd round, unit inferred): > 10 µM

C[C@H](CO)N1C[C@H](C)[C@H](CN(C)C(=O)Nc2ccc(C(F)(F)F)cc2)Oc2c(NC(=O)c3ccc(-c4nccs4)cc3)cccc2C1=O [BRD-K74949371-001-01-3]
IC50 (sheet 2nd round): > 10 µM
Tox_max_inhibition (%) [2]: 6.39%

N#Cc1ccc(-c2ccc(C3[C@@H]4CN(C(=O)Nc5ccc6c(c5)OCO6)C[C@H]3N4)cc2)cc1 (stereo partly drawn) [BRD-K65395967-019-01-2]
Tox_max_inhibition (%) [1]: 28%
IC50 (2nd round, unit inferred): > 10 µM

OC[C@@H]1[C@H](c2ccc(-c3ccc(F)cc3)cc2)[C@@H](CNC2CCCC2)N1CCC(F)(F)F [BRD-K76178468-001-01-1]
IC50 (sheet 2nd round): > 10 µM
Tox_max_inhibition (%) [2]: 22%

COc1ccc2c3c(n(C)c2c1)[C@@H](CO)N(Cc1ccc2c(c1)OCO2)CC31CN(C(=O)c2ccc3c(c2)OCO3)C1 [BRD-K07064121-001-01-6]
IC50 (sheet "2nd round"): > 10 µM
Tox_max_inhibition (%) (sheet "2nd round"): 18%

CCCNC(=O)N1[C@H](C#N)[C@H](c2ccccc2-c2cccc(C)c2)[C@@H]1CO [BRD-K74392214-001-01-7]
IC50 (sheet 2nd round): > 10 µM
Tox_max_inhibition (%) [2]: 7.44%

C[C@@H]1CCCCO[C@H](CN(C)S(=O)(=O)c2ccccc2)[C@@H](C)CN([C@@H](C)CO)C(=O)c2cc(NC(=O)Nc3ccc4c(c3)OCO4)ccc2O1 [BRD-K94107458-001-01-0]
IC50 (sheet "2nd round"): > 10 µM
Tox_max_inhibition (%) (sheet "2nd round"): 5%

CN1c2ccc(C#Cc3cccnc3)cc2[C@@H]2[C@@H](CCN2C(=O)c2cccc(F)c2)[C@@H]1CO [BRD-K18296007-001-01-0]
Tox_max_inhibition (%) [1]: 14%
IC50 (2nd round, unit inferred): > 10 µM

O=C(Nc1ccccc1F)N1CCCCN2[C@H](CO)[C@@H](c3ccc(/C=C/c4ccccc4)cc3)[C@H]2C1 [BRD-K46850496-001-01-8]
IC50 (sheet 2nd round): > 10 µM
Tox_max_inhibition (%) [2]: 11%

O=C(C1CC1)N1C[C@@H]2N[C@H](C1)C2c1ccc(-c2ccccc2F)cc1 (stereo partly drawn) [BRD-K95724677-019-01-8]
IC50 (sheet 2nd round): 3.72 µM
Tox_max_inhibition (%) [2]: 93%

COc1ccccc1CN1C[C@@H](C)[C@H](OC)CN(C)C(=O)c2ccc(NC(=O)Nc3ccccc3OC)cc2OC[C@H]1C [BRD-K01898236-001-01-5]
Tox_max_inhibition (%) [1]: 9%
IC50 (2nd round, unit inferred): > 10 µM

Fc1cccc(CN2C[C@@H]3N[C@H](C2)C3c2ccc(/C=C/c3ccccc3)cc2)c1 (stereo partly drawn) [BRD-K69682028-019-01-6]
IC50 (sheet "2nd round"): > 10 µM
Tox_max_inhibition (%) (sheet "2nd round"): 16%

COc1ccc2c3c([nH]c2c1)[C@H](CO)N(S(C)(=O)=O)CC31CCN(C(=O)Nc2ccccc2)CC1 [BRD-K47463456-001-01-7]
IC50 (sheet "2nd round"): > 10 µM
Tox_max_inhibition (%) (sheet "2nd round"): 13%

C[C@@H]1CCCCO[C@@H](CN(C)C(=O)Nc2cccc3ccccc23)[C@H](C)CN([C@@H](C)CO)C(=O)c2cc(NC(=O)CCC(F)(F)F)ccc2O1 [BRD-K26887637-001-01-4]
IC50 (sheet 2nd round): > 10 µM
Tox_max_inhibition (%) [2]: 11%

C[C@@H]1CN([C@H](C)CO)C(=O)c2cccc(NC(=O)c3ccc(-c4nccs4)cc3)c2O[C@@H]1CN(C)C(=O)Nc1ccc(C(F)(F)F)cc1 [BRD-K36757984-001-01-6]
IC50 (sheet 2nd round): > 10 µM
Tox_max_inhibition (%) [2]: 2.49%

COc1ccc2c3c([nH]c2c1)[C@H](CO)N(C(C)=O)CC31CN(Cc2ccccc2Cl)C1 [BRD-K02242562-001-01-9]
IC50 (sheet 2nd round): > 10 µM
Tox_max_inhibition (%) [2]: 3.51%

CCCNC(=O)N1[C@H](C#N)[C@H](c2ccccc2C2=CCCCC2)[C@@H]1CO [BRD-K29207675-001-01-5]
Tox_max_inhibition (%) [1]: 12%
IC50 (2nd round, unit inferred): > 10 µM

O=C(Nc1ccccc1F)N1CCCCN2[C@H](C1)[C@@H](c1ccc(/C=C/c3ccccc3)cc1)[C@@H]2CO [BRD-K41442469-001-01-2]
IC50 (sheet "2nd round"): > 10 µM
Tox_max_inhibition (%) (sheet "2nd round"): 8.49%
